Data reported in US20230348459A1, “PYRROLIDINE COMPOUND AND USE THEREOF” (SIMCERE PHARMACEUTICAL CO., LTD., priority 2020, published 2023).

Assays:
[1] = Plasma protein binding rate, equilibrium dialysis, monkey plasma; type: in vitro ADME; details: pH 7.4, Cynomolgus monkey plasma, 6 hours dialysis
Description: The protein binding rate of the compounds of the present invention in the plasma of five species (human, monkey, dog, rat and mouse) was determined by the following test method.
• 1. Human plasma (BioIVT), beagle dog plasma (BioIVT), SD rat plasma (BioIVT), CD-1 mouse plasma (BioIVT); • 2. 96-well equilibrium dialysis plate (HTDialysis LLC, Gales Ferry, CT, HTD96B), equilibrium dialysis membrane (MWCO 12-14 K, #1101); • 3. Positive control compound warfarin; • 4. ABI QTrap 5500 liquid chromatography-mass spectrometry.
1. Preparation of a buffer with a concentration of 100 mM sodium phosphate and 150 mM NaCl: an alkaline solution with a concentration of 14.2 g/L Na2HPO4 and 8.77 g/L NaCl was prepared with ultrapure water, and an acidic solution with a concentration of 12.0 g/L NaH2PO4 and 8.77 g/L NaCl was prepared with ultrapure water. The alkaline solution was titrated with the acidic solution to pH 7.4 to prepare a buffer with a concentration of 100 mM sodium phosphate and 150 mM NaCl.
2. Preparation of dialysis membrane: the dialysis membrane was soaked in ultrapure water for 60 minutes to separate the membrane into two pieces, then soaked in 20% ethanol for 20 minutes, and finally soaked in the buffer used for dialysis for 20 minutes.
3. Preparation of plasma: the frozen plasma was quickly thawed at room temperature, then the plasma was centrifuged at 3,220 g at 4° C. for 10 min to remove clots, and the supernatant was collected into a new centrifuge tube. The pH of the plasma was measured and recorded, and the plasma with pH of 7-8 was used.
3. Preparation of compound-containing plasma samples: 10 mM stock solution of compounds of the present invention or positive control compounds were diluted with DMSO to obtain 200 µM working solution. […]
The peak areas of the compounds on the buffer side and the plasma side were determined. […]
All the data was calculated by the Microsoft Excel software. The plasma protein binding rate values of the compounds of the present invention were calculated.

[2] = target: voltage-gated potassium ion channel hERG (Homo sapiens (Human), UniProt Q12809); test: hERG manual patch clamp in HEK293 cells; type: cell-based; details: HEK293 cells stably expressing hERG
Chain of voltage-gated potassium ion channel hERG (Q12809 whole entry): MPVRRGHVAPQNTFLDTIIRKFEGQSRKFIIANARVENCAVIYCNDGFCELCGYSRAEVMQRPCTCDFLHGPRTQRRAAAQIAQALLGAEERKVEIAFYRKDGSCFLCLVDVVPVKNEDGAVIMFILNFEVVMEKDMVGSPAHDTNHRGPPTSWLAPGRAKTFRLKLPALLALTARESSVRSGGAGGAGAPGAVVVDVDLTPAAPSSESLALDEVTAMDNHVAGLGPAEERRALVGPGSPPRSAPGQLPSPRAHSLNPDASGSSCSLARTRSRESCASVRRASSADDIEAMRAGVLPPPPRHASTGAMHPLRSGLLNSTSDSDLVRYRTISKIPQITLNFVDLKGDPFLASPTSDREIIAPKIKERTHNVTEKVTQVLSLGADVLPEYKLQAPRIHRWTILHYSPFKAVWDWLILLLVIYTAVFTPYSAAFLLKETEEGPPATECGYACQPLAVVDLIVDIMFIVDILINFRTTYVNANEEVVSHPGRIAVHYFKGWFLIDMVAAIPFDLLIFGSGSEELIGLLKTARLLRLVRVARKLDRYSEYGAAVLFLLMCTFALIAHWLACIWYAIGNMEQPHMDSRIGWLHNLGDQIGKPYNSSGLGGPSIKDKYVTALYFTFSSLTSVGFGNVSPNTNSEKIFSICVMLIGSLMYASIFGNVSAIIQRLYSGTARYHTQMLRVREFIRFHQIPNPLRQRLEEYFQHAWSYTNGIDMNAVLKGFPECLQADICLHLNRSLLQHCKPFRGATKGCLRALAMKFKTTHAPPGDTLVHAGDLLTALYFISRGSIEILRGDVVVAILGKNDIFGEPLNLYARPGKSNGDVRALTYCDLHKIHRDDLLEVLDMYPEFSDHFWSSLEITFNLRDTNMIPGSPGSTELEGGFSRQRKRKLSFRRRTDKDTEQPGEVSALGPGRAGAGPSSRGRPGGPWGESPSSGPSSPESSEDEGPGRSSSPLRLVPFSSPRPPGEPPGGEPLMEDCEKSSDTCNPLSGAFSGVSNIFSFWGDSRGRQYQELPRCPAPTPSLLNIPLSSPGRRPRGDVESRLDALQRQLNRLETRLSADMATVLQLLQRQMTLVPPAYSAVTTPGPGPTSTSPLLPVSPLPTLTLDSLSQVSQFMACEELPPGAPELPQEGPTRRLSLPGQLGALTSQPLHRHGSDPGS
Description: HEK293 cell line stably expressing hERG ion channel (Cat. No. K1236) was purchased from Invitrogen. The cell line was cultured in the medium containing 85% DMEM, 10% dialysis fetal bovine serum, 0.1 mM non-essential amino acid solution, 100 U/mL penicillin-streptomycin solution, 25 mM HEPES, 5 µg/mL blasticidin and 400 µg/mL geneticin. When the cell density increased to 40%-80% of the bottom area of the culture dish, trypsin was used for digestion and passage, and the cells were passaged three times weekly. Before the experiment, the cells were cultured in a 6 cm culture dish at a density of 5 × 10^5 and induced by adding 1 µg/mL doxycycline for 48 hours, and then the cells were digested and inoculated on glass slides for subsequent manual patch clamp experiments.
1) According to the SOP-ADMET-MAN-007 standard operating procedure, the compounds to be tested were dissolved with DMSO and prepared into the stock solution with a final concentration of 10 mM. […]
10. Determination of the inhibitory effect of the compounds to be tested on hERG current: First, the hERG current measured in extracellular fluid containing 0.1% DMSO was used as the detection baseline. […] By waiting for about 5 minutes after the completion of each perfusion, the compound was allowed to fully act on the cells, and the hERG currents were simultaneously recorded. After the currents to be recorded became stable, the last 5 hERG current values were recorded, and the average value thereof was taken as the final current value thereof at a specific concentration. […] In addition, the positive compound dofelide was detected with the same patch clamp system both before and after the completion of the test compound experiment to ensure the reliability and sensitivity of the entire detection system.
1) After perfusion of blank solvent or compound gradient solution, the average value of 5 continuous current values obtained in a stable state is calculated as “tail current valueblank” and “tail current valuecompound”, respectively.
2) The percent current inhibition was calculated by the following formula. […]

Compound	fraction unbound at 6 h, 1 µM [1]	IC50 [2] [µM]
C[C@@H]1Cc2c([nH]c3ccccc23)C(c2c(F)cc(N[C@H]3CCN(CCCF)C3)cc2F)N1CC(F)(F)F (stereo in doubt) [Example 4, (S)-N-(3,5-difluoro-4-((1S,3R)-3-methyl-2-(2,2,2-trifluoroethyl)-2,3,4,9-tetrahydro-1H-pyridino[3,4-b]indol-1-yl)phenyl)-1-(3-fluoropropyl)pyrrolidin-3-amine]	0.002	3.7
C[C@@H]1Cc2c([nH]c3ccccc23)C(c2c(F)cc(N[C@H]3CCN(CCCF)C3)cc2F)N1CC(F)(F)CO (stereo in doubt) [Example 7, 3-((1S,3R)-1-(2,6-difluoro-4-(((S)-1-(3-fluoropropyl)pyrrolidin-3-yl)amino)phenyl)-3-methyl-3,4-dihydro-1H-pyridino [3,4-b]indole-2(9H)-yl)-2,2-difluoropropane-1-ol]	0.023	8.4
C[C@@H]1Cc2c([nH]c3ccccc23)[C@@H](c2ccc(N[C@H]3CCN(CCCF)C3)cn2)N1CC(F)(F)F [Example 3, N-((S)-1-(3-fluoropropyl)pyrrolidin-3-yl)-6-((1S,3R)-3-methyl-2-(2,2,2-trifluoroethyl)-2,3,4,9-tetrahydro-1H-pyridino[3,4-b]indol-1-yl)pyridine-3-amine]	0.022	10
